In patent US20230174584A1, “Antibiotic Compounds” (priority 2019, published 2023):
In brackets after ≈: the same amount, converted by molar mass. Like-named read-outs stand apart in the source and are kept apart here.

Key:
[1] = tested on: S. aureus LIM-2, NR-25881; assay: MIC assay; assay type: cell-based, Staphylococcus aureus
In short: (§1)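 Following CLSI guidance, the assay uses twofold compound dilutions in tryptic soy broth plus 0.002% polysorbate 80, equal-volume inoculum of 10^6 CFU/mL, and a 24 h shaken incubation at 37 °C. Values are medians of triplicate or more, in μg/mL.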

[2] = tested on: S. aureus HIP12864, NR-46074; assay: MIC assay; assay type: cell-based, Staphylococcus aureus
In short: as §1

[3] = tested on: S. aureus 880 (BR-VRSA), NR-49120; assay: MIC assay; assay type: cell-based, Staphylococcus aureus
In short: as §1

[4] = tested on: S. aureus NY-155, NR-46236; assay: MIC assay; assay type: cell-based, Staphylococcus aureus
In short: as §1

S. aureus ATCC29213 = assay: MIC assay; assay type: cell-based, Staphylococcus aureus
In short: as §1

E. faecium E1441 = assay: MIC assay; assay type: cell-based, Enterococcus faecium
[5] = tested on: Klebsiella pneumoniae ATCC 13883; assay: MIC assay; assay type: cell-based
In short: as §1

S. pneumoniae 153 = assay: MIC assay; assay type: cell-based
In short: as §1

Escherichia coli W3110 = assay: MIC assay; assay type: cell-based
In short: as §1

[6] = tested on: Klebsiella pneumoniae JS265; assay: MIC assay; assay type: cell-based
In short: as §1

[7] = tested on: Klebsiella pneumoniae ATCC 27736; assay: MIC assay; assay type: cell-based
In short: as §1

[8] = tested on: Escherichia coli ATCC 35218; assay: MIC assay; assay type: cell-based
In short: as §1

[9] = tested on: Escherichia coli ATCC 25922; assay: MIC assay; assay type: cell-based
In short: as §1

[10] = tested on: panel of 31 vancomycin-resistant E. faecium strains; assay: MIC assay, MIC50/MIC90 over panel; assay type: cell-based, Enterococcus faecium
Experimental: The antibacterial activity of the compounds was tested against a panel of bacteria, including Gram-positive bacteria (S. aureus ATCC29213, S. aureus USA300, S. aureus LIM-2, NR-45881, S. aureus HIP13419, NR-46413, E. faecium E155, E. faecium E7314, E. faecium E980, E. faecalis E1246, E. faecalis E7406 and S. pneumonia 153). The antibacterial activity of the compounds was further tested against S. aureus NY-155, NR-46236, S. aureus HIP12864, NR-46074, S. aureus 880 (BR-VRSA), NR-49120, E. faecalis E1246, E. faecalis E7604, as well as some Gram-negative bacteria (Escherichia coli and Klebsiella pneumoniae). Minimum inhibitory concentrations (MICs) in μg/mL were performed according to the CLSI guidelines. From glycerol stocks, bacterial strains were cultured on blood agar plates and incubated at 37° C. for 18 h. A single colony was transferred to tryptic soy broth (TSB) with 0.002% polysorbate 80 (p80). For the Enterococcus, VISA and VRSA strains, the cultures were grown at 37° C. until the optical density of the suspension reached a level equivalent to the 0.5 McFarland standard. The bacterial suspensions were diluted in TSB with 0.002% p80 to reach a bacterial cell density of 10^6 CFU/mL. In case of the other (vancomycin-sensitive) S. aureus strains, the direct colony suspension method was used. For these strains, after transfer of the colonies to TSB with 0.002% p80, they were immediately diluted to 10^6 CFU/mL, instead of incubated prior to this dilution. In the case of S. pneumonia, direct colony suspension was used by immediately suspending multiple colonies from fresh blood agar plates in TSB+0.002% p80 to an OD600 of 0.5 and subsequent dilution to 10^6 CFU mL^−1 in TSB+0.002% p80+5% lysed horse blood. Antibiotic dilutions for this strains were also made in TSB+0.002% p80+5% lysed horse blood. Both agar and microplates containing S. pneumonia were incubated at 37° C. with 5% CO2 for 24 h with constant shaking (600 rpm). […] The cultures were grown to exponential phase (OD600=0.5) at 37° C. […] In polypropylene 96-well microtiter plates, test compounds were added in biological triplicates and serial diluted 2-fold by transfer and mixing from one well to the next to achieve a final volume of 50 μL per well. An equal volume of bacterial suspension (10^6 CFU mL^−1) was added to the wells. The plates were sealed with breathable membranes and incubated at 37° C. for 24 h with constant shaking (600 rpm). In polypropylene microtiter plates, 100 μL of the test compounds was added to the first row in biological triplicates, and 50 μL of media was added to the other wells. The compounds were subjected to serial dilution by transfer and mixing of 50 μL from one well to the next. Subsequently, 50 μL of bacterial suspension (10^6 CFU/mL) was added to the wells. The plates were sealed with breathable membranes and incubated at 37° C. for 24 h with constant shaking (600 rpm). Positive growth control consisted of wells with bacterial suspension and without antibiotic. Negative growth control consisted of solely media without bacterial suspension or antibiotic. The MICs were determined from the median of a minimum of triplicates.

E. faecalis E7406 = assay: microbe, parasite or virus in culture; assay type: cell-based, Enterococcus faecalis
In short: as §1

E. faecium E0300 = assay: MIC assay; assay type: cell-based, Enterococcus faecium
In short: as §1

E. faecium E2373 = assay: MIC assay; assay type: cell-based, Enterococcus faecium
In short: as §1

E. faecium E0745 = assay: MIC assay; assay type: cell-based, Enterococcus faecium
In short: as §1

E. faecium E8237 = assay: MIC assay; assay type: cell-based, Enterococcus faecium
In short: as §1

E. faecalis E1246 = assay: MIC assay; assay type: cell-based, Enterococcus faecalis
In short: as §1

[11] = S. aureus HIP12864, NR-46074 VISA
[12] = S. aureus NY-155, NR-46236 MRSA
[13] = S. pneumoniae 153, TSB+0.002% p80+5% lysed horse blood
[14] = panel of 31 vancomycin-resistant E. faecium strains
[15] = E. faecalis E1246 VRE (VanA), Table 7
[16] = E. faecalis E1246 VRE (vanA), Table 9

| SMILES | MIC ([1]; S. aureus LIM-2, NR-25881 VISA) | MIC [2, 11] | MIC ([3]; S. aureus 880, NR-49120 VRSA) | MIC ([3]; strain BR-VRSA) | MIC [4, 12] | MIC (S. aureus ATCC29213; S. aureus ATCC29213 MSSA) | MIC (E. faecium E1441; E. faecium E1441, VanA) | MIC [5] | MIC (S. pneumoniae 153; [13]) | MIC (Escherichia coli W3110) | MIC [6] | MIC [7] | MIC [8] | MIC [9] | MIC50 [10, 14] | MIC90 [10, 14] | MIC (E. faecalis E7406; E. faecalis E7406 VRE (VanB)) | MIC (E. faecium E0300; E. faecium E0300, VanA) | MIC (E. faecium E2373; E. faecium E2373, VanA) | MIC (E. faecalis E1246; [16]) | other results |
| --- | --- | --- | --- | --- | --- | --- | --- | --- | --- | --- | --- | --- | --- | --- | --- | --- | --- | --- | --- | --- | --- |
| CCCCCCN(CCCCCC)C(N)=Nc1ccc(CN[C@@]2(C)C[C@H](O[C@H]3[C@H](Oc4c5cc6cc4Oc4ccc(cc4Cl)[C@@H](O)[C@@H](NC(=O)[C@@H](CC(C)C)NC)C(=O)N[C@@H](CC(N)=O)C(=O)N[C@H]6C(=O)N[C@H]4C(=O)N[C@H](C(=O)N[C@H](C(=O)O)c6cc(O)cc(O)c6-c6cc4ccc6O)[C@H](O)c4ccc(c(Cl)c4)O5)O[C@H](CO)[C@@H](O)[C@@H]3O)O[C@@H](C)[C@H]2O)cc1 [Compound 12] | ≤0.008 µg/mL | 0.063 µg/mL (≈ 0.0357 µM) | 1 µg/mL (≈ 0.567 µM) | 1 µg/mL (≈ 0.567 µM) | ≤0.008 µg/mL | ≤0.007812 µg/mL | 2 µg/mL (≈ 1.13 µM) | >128 µg/mL | ≤8 ng/mL | >128 µg/mL | >128 µg/mL | >128 µg/mL | >128 µg/mL | >128 µg/mL | 0.25 µg/mL (≈ 0.142 µM) | 2 µg/mL (≈ 1.13 µM) | ≤0.007812 µg/mL | 1 µg/mL (≈ 0.567 µM) | 1 µg/mL (≈ 0.567 µM) | 8 µg/mL (≈ 4.53 µM) | MIC (E. faecium E0745; E. faecium E0745, VanA): 0.25 µg/mL (≈ 0.142 µM); MIC (E. faecium E8237; E. faecium E8237, VanA): 2 µg/mL (≈ 1.13 µM); MIC (E. faecalis E1246; [15]): 8 µg/mL (≈ 4.53 µM) |
| CN[C@H](CC(C)C)C(=O)N[C@H]1C(=O)N[C@@H](CC(N)=O)C(=O)N[C@H]2C(=O)N[C@H]3C(=O)N[C@H](C(=O)N[C@H](C(=O)O)c4cc(O)cc(O)c4-c4cc3ccc4O)[C@H](O)c3ccc(c(Cl)c3)Oc3cc2cc(c3O[C@@H]2O[C@H](CO)[C@@H](O)[C@H](O)[C@H]2O[C@H]2C[C@](C)(NCc3ccc(N=C(N)NC/C=C(\C)CCC=C(C)C)cc3)[C@H](O)[C@H](C)O2)Oc2ccc(cc2Cl)[C@H]1O [Compound 14] | ≤0.008 µg/mL | 0.031 µg/mL (≈ 0.0179 µM) | 1 µg/mL (≈ 0.577 µM) | – | ≤0.008 µg/mL | ≤0.007812 µg/mL | 4 µg/mL (≈ 2.31 µM) | >128 µg/mL | ≤8 ng/mL | >128 µg/mL | >128 µg/mL | >128 µg/mL | >128 µg/mL | >128 µg/mL | 1 µg/mL (≈ 0.577 µM) | 8 µg/mL (≈ 4.62 µM) | ≤0.007812 µg/mL | 4 µg/mL (≈ 2.31 µM) | 4 µg/mL (≈ 2.31 µM) | 8 µg/mL (≈ 4.62 µM) | MIC (E. faecium E0745; E. faecium E0745, VanA): 1 µg/mL (≈ 0.577 µM); MIC (E. faecium E8237; E. faecium E8237, VanA): 4 µg/mL (≈ 2.31 µM); MIC (E. faecalis E1246; [15]): 8 µg/mL (≈ 4.62 µM) |
| CCCCCCCCCCNCCN[C@@]1(C)C[C@H](O[C@H]2[C@H](Oc3c4cc5cc3Oc3ccc(cc3Cl)[C@@H](O)[C@@H](NC(=O)[C@@H](CC(C)C)NC)C(=O)N[C@@H](CC(N)=O)C(=O)N[C@H]5C(=O)N[C@H]3C(=O)N[C@H](C(=O)N[C@H](C(=O)O)c5cc(O)c(CNCP(=O)(O)O)c(O)c5-c5cc3ccc5O)[C@H](O)c3ccc(c(Cl)c3)O4)O[C@H](CO)[C@@H](O)[C@@H]2O)O[C@@H](C)[C@H]1O [Telavancin, reference compound] | – | – | – | 8 µg/mL (≈ 4.56 µM) | – | – | – | – | – | – | – | – | > 128 µg/mL | – | – | – | – | – | – | 4 µg/mL (≈ 2.28 µM) | MIC ([1]; Staphylococcus aureus, VISA): 0.25 µg/mL (≈ 0.142 µM); MIC ([2]; Staphylococcus aureus, VISA): 0.25 µg/mL (≈ 0.142 µM); MIC ([3]; Staphylococcus aureus, VRSA): 8 µg/mL (≈ 4.56 µM); MIC ([4]; Staphylococcus aureus, MRSA): 0.031 µg/mL (≈ 0.0177 µM); MIC (S. aureus ATCC29213; Staphylococcus aureus, ATCC 29213 / MSSA): 0.125 µg/mL (≈ 0.0712 µM); MIC (E. faecium E1441; Enterococcus faecium, E1441): 8 µg/mL (≈ 4.56 µM); MIC ([5]; ATCC13883, read-out: MIC): > 128 µg/mL; MIC (S. pneumoniae 153; Streptococcus pneumoniae, 153): ≤ 8 ng/mL; MIC (Escherichia coli W3110; read-out: MIC): > 128 µg/mL; MIC ([6]; read-out: MIC): > 128 µg/mL; MIC ([7]; ATCC27736, read-out: MIC): > 128 µg/mL; MIC ([9]; ATCC25922, read-out: MIC): > 128 µg/mL; MIC50 ([10]; Enterococcus faecium): 4 µg/mL (≈ 2.28 µM); MIC90 ([10]; Enterococcus faecium): 8 µg/mL (≈ 4.56 µM); MIC (E. faecalis E7406; Enterococcus faecalis, VRE): 0.0625 µg/mL (≈ 0.0356 µM); MIC (E. faecium E0300; Enterococcus faecium, E0300): 8 µg/mL (≈ 4.56 µM); MIC (E. faecium E2373; Enterococcus faecium, E2373): 8 µg/mL (≈ 4.56 µM); MIC (E. faecium E0745; Enterococcus faecium, E0745): 4 µg/mL (≈ 2.28 µM); MIC (E. faecium E8237; Enterococcus faecium, E8237): 16 µg/mL (≈ 9.11 µM); MIC (E. faecalis E1246; Enterococcus faecalis, VRE): 4 µg/mL (≈ 2.28 µM) |
